Test results published in patent US20020001582A1, “Methods and compositions for inhibiting microbial growth” (priority 1999, published 2002).

Tests used:
[1] = tested on: Fusarium; assay: Lysozyme against Fusarium, plug in PD broth; assay type: cell-based
Experimental: PD broth was prepared and autoclaved in dilution bottles (100 ml) and allowed to cool. Required amounts of lysozyme were added into the bottles and dissolved. […] A square of Fusarium (5-10 mm square “plug”) was cut and placed in/near the center of each dish. The plates were incubated at room temperature for 2 weeks. The trial was carried out in triplicate and was repeated three times.
The fungal growth was quantified by measuring the diameter of Fusarium growth and the coverage of the plates by the fungus. The measurements (given in mm) also include the size of the inoculum plug inserted into the plate of media. The color change and the change in the physical appearance (fuzzy, not fuzzy) were also monitored. The Fusarium growth is pink to dark pink. All the numbers shown are the averages of three replicates for each treatment. The diameter of the plate was approximately 85 mm.

[2] = tested on: Sclerotinia homoeocarpa; assay: Inhibition of Sclerotinia homoeocarpa in potato dextrose broth (area of growth); assay type: cell-based; settings: 2 weeks after the inoculation
Experimental: Potato dextrose broth was prepared. Fifty ml of the PD broth was added into 100 ml dilution bottles, autoclaved and cooled to room temperature. Various amounts of lysozyme, chitosan, polylysine and avidin were weighed into the bottles. Ten ml of the PD broth with or without the antimicrobials was transferred into sterile petri dishes. A plug of Sclerotinia homoeocarpa (about 6-10 mm square) grown on PD agar was placed into the center of each petri dish. These treatments were all done in triplicates. Fungal growth was monitored by measuring the area of the growth.

lysozyme: type c egg white lysozyme, enzyme of approximately 129 amino acids; commercially available from Canadian Inovatech, Inc.
Fusarium growth ([1]; 250 ppm, broth turned yellow after 10 days): quite limited | diameter of Fusarium growth ([1]; Batch 1, 25 ppm, day 0 (inoculum plug)): 9.3 mm | growth, color and physical appearance ([1]; Batch 1, 25 ppm, day 4): Confluent, pink | growth, color and physical appearance ([1]; Batch 1, 25 ppm, day 7): Confluent, dark | growth, color and physical appearance ([1]; Batch 1, 25 ppm, day 11): Confluent, dark | diameter of Fusarium growth ([1]; Batch 1, 50 ppm, day 0 (inoculum plug)): 9.7 mm | growth, color and physical appearance ([1]; Batch 1, 50 ppm, day 4): Confluent, pink | growth, color and physical appearance ([1]; Batch 1, 50 ppm, day 7): Confluent, dark | growth, color and physical appearance ([1]; Batch 1, 50 ppm, day 11): Confluent, dark | diameter of Fusarium growth ([1]; Batch 1, 75 ppm, day 0 (inoculum plug)): 8.3 mm | coverage of the plates by the fungus ([1]; Batch 1, 75 ppm, day 4): 36.7% covered | diameter of Fusarium growth ([1]; Batch 1, 75 ppm, day 4): 23.7 mm | coverage of the plates by the fungus ([1]; Batch 1, 75 ppm, day 7): 60% covered | diameter of Fusarium growth ([1]; Batch 1, 75 ppm, day 7): 27.0 mm | growth, color and physical appearance ([1]; Batch 1, 75 ppm, day 11): Confluent, dark | diameter of Fusarium growth ([1]; Batch 1, 100 ppm, day 0 (inoculum plug)): 8.0 mm | coverage of the plates by the fungus ([1]; Batch 1, 100 ppm, day 4): 26.7% covered | diameter of Fusarium growth ([1]; Batch 1, 100 ppm, day 4): 23.7 mm | coverage of the plates by the fungus ([1]; Batch 1, 100 ppm, day 7): 46.7% covered | diameter of Fusarium growth ([1]; Batch 1, 100 ppm, day 7): 28.3 mm | coverage of the plates by the fungus ([1]; Batch 1, 100 ppm, day 11): 80% covered | growth, color and physical appearance ([1]; Batch 1, 100 ppm, day 11): Dark pink | diameter of Fusarium growth ([1]; Batch 1, 250 ppm, day 0 (inoculum plug)): 8.7 mm | diameter of Fusarium growth ([1]; Batch 1, 250 ppm, day 4): 16.0 mm | diameter of Fusarium growth ([1]; Batch 1, 250 ppm, day 7): 22.0 mm | coverage of the plates by the fungus ([1]; Batch 1, 250 ppm, day 11): 29.7% covered | growth, color and physical appearance ([1]; Batch 1, 250 ppm, day 11): Yellow broth | diameter of Fusarium growth ([1]; Batch 2, 25 ppm, day 0 (inoculum plug)): 7.8 mm | coverage of the plates by the fungus ([1]; Batch 2, 25 ppm, day 4): 76.7% | growth, color and physical appearance ([1]; Batch 2, 25 ppm, day 4): dark peach | coverage of the plates by the fungus ([1]; Batch 2, 25 ppm, day 6): 88.3% | growth, color and physical appearance ([1]; Batch 2, 25 ppm, day 6): pink | coverage of the plates by the fungus ([1]; Batch 2, 25 ppm, day 8): 91.7% | growth, color and physical appearance ([1]; Batch 2, 25 ppm, day 8): dark pink | coverage of the plates by the fungus ([1]; Batch 2, 25 ppm, day 11): 91.7% | growth, color and physical appearance ([1]; Batch 2, 25 ppm, day 11): dark pink | coverage of the plates by the fungus ([1]; Batch 2, 25 ppm, day 14): 91.7% | growth, color and physical appearance ([1]; Batch 2, 25 ppm, day 14): dark pink, | diameter of Fusarium growth ([1]; Batch 2, 50 ppm, day 0 (inoculum plug)): 7.5 mm | coverage of the plates by the fungus ([1]; Batch 2, 50 ppm, day 4): 43.3% | growth, color and physical appearance ([1]; Batch 2, 50 ppm, day 4): peach | coverage of the plates by the fungus ([1]; Batch 2, 50 ppm, day 6): 60% | growth, color and physical appearance ([1]; Batch 2, 50 ppm, day 6): pink | coverage of the plates by the fungus ([1]; Batch 2, 50 ppm, day 8): 61.7% | growth, color and physical appearance ([1]; Batch 2, 50 ppm, day 8): dark pink | coverage of the plates by the fungus ([1]; Batch 2, 50 ppm, day 11): 68.3% | growth, color and physical appearance ([1]; Batch 2, 50 ppm, day 11): dark pink | coverage of the plates by the fungus ([1]; Batch 2, 50 ppm, day 14): 55.0% | growth, color and physical appearance ([1]; Batch 2, 50 ppm, day 14): dark pink, | diameter of Fusarium growth ([1]; Batch 2, 75 ppm, day 0 (inoculum plug)): 8.0 mm | coverage of the plates by the fungus ([1]; Batch 2, 75 ppm, day 4): 13.3% | diameter of Fusarium growth ([1]; Batch 2, 75 ppm, day 4): 21.3 mm | growth, color and physical appearance ([1]; Batch 2, 75 ppm, day 4): peach | coverage of the plates by the fungus ([1]; Batch 2, 75 ppm, day 6): 40% | growth, color and physical appearance ([1]; Batch 2, 75 ppm, day 6): pink | coverage of the plates by the fungus ([1]; Batch 2, 75 ppm, day 8): 46.7% | growth, color and physical appearance ([1]; Batch 2, 75 ppm, day 8): pink | coverage of the plates by the fungus ([1]; Batch 2, 75 ppm, day 11): 61.7% | growth, color and physical appearance ([1]; Batch 2, 75 ppm, day 11): dark pink | coverage of the plates by the fungus ([1]; Batch 2, 75 ppm, day 14): 68.3% | growth, color and physical appearance ([1]; Batch 2, 75 ppm, day 14): dark pink, | diameter of Fusarium growth ([1]; Batch 2, 100 ppm, day 0 (inoculum plug)): 7.8 mm | diameter of Fusarium growth ([1]; Batch 2, 100 ppm, day 4): 22.3 mm | growth, color and physical appearance ([1]; Batch 2, 100 ppm, day 4): peach | diameter of Fusarium growth ([1]; Batch 2, 100 ppm, day 6): 20.0 mm | growth, color and physical appearance ([1]; Batch 2, 100 ppm, day 6): light peach | coverage of the plates by the fungus ([1]; Batch 2, 100 ppm, day 8): 30.3% | growth, color and physical appearance ([1]; Batch 2, 100 ppm, day 8): pink | diameter of Fusarium growth ([1]; Batch 2, 100 ppm, day 11): 37 mm | growth, color and physical appearance ([1]; Batch 2, 100 ppm, day 11): pink/yellow | diameter of Fusarium growth ([1]; Batch 2, 100 ppm, day 14): 42.7 mm | growth, color and physical appearance ([1]; Batch 2, 100 ppm, day 14): pink, fuzzy | diameter of Fusarium growth ([1]; Batch 2, 250 ppm, day 0 (inoculum plug)): 7.3 mm | diameter of Fusarium growth ([1]; Batch 2, 250 ppm, day 4): 17.0 mm | growth, color and physical appearance ([1]; Batch 2, 250 ppm, day 4): light peach | diameter of Fusarium growth ([1]; Batch 2, 250 ppm, day 6): 19.7 mm | growth, color and physical appearance ([1]; Batch 2, 250 ppm, day 6): very light | diameter of Fusarium growth ([1]; Batch 2, 250 ppm, day 8): 22 mm | growth, color and physical appearance ([1]; Batch 2, 250 ppm, day 8): dark peach | diameter of Fusarium growth ([1]; Batch 2, 250 ppm, day 11): 25.7 mm | growth, color and physical appearance ([1]; Batch 2, 250 ppm, day 11): yellow broth | diameter of Fusarium growth ([1]; Batch 2, 250 ppm, day 14): 35.0 mm | growth, color and physical appearance ([1]; Batch 2, 250 ppm, day 14): pink, fuzzy | diameter of Fusarium growth ([1]; Batch 3, 25 ppm, day 0 (inoculum plug)): 8.2 mm | coverage of the plates by the fungus ([1]; Batch 3, 25 ppm, day 4): 25% covered | diameter of Fusarium growth ([1]; Batch 3, 25 ppm, day 4): 26.3 mm | growth, color and physical appearance ([1]; Batch 3, 25 ppm, day 4): peach | coverage of the plates by the fungus ([1]; Batch 3, 25 ppm, day 7): 33.3% covered | diameter of Fusarium growth ([1]; Batch 3, 25 ppm, day 7): 24.7 mm | growth, color and physical appearance ([1]; Batch 3, 25 ppm, day 7): pink, fuzzy | coverage of the plates by the fungus ([1]; Batch 3, 25 ppm, day 11): 38.3% | diameter of Fusarium growth ([1]; Batch 3, 25 ppm, day 11): 31.3 mm | growth, color and physical appearance ([1]; Batch 3, 25 ppm, day 11): pink, fuzzy | coverage of the plates by the fungus ([1]; Batch 3, 25 ppm, day 14): 45.0% covered, | diameter of Fusarium growth ([1]; Batch 3, 25 ppm, day 14): 32.0 mm | growth, color and physical appearance ([1]; Batch 3, 25 ppm, day 14): pink, fuzzy | diameter of Fusarium growth ([1]; Batch 3, 50 ppm, day 0 (inoculum plug)): 7.5 mm | coverage of the plates by the fungus ([1]; Batch 3, 50 ppm, day 4): 28.3% covered | diameter of Fusarium growth ([1]; Batch 3, 50 ppm, day 4): 22.7 mm | growth, color and physical appearance ([1]; Batch 3, 50 ppm, day 4): peach | coverage of the plates by the fungus ([1]; Batch 3, 50 ppm, day 7): 41.7% covered | diameter of Fusarium growth ([1]; Batch 3, 50 ppm, day 7): 25.7 mm | growth, color and physical appearance ([1]; Batch 3, 50 ppm, day 7): pink, fuzzy | coverage of the plates by the fungus ([1]; Batch 3, 50 ppm, day 11): 41.7% | diameter of Fusarium growth ([1]; Batch 3, 50 ppm, day 11): 28.0 mm | growth, color and physical appearance ([1]; Batch 3, 50 ppm, day 11): pink, fuzzy | coverage of the plates by the fungus ([1]; Batch 3, 50 ppm, day 14): 48.3% covered, | diameter of Fusarium growth ([1]; Batch 3, 50 ppm, day 14): 29.3 mm | growth, color and physical appearance ([1]; Batch 3, 50 ppm, day 14): pink, fuzzy | diameter of Fusarium growth ([1]; Batch 3, 75 ppm, day 0 (inoculum plug)): 8.2 mm | diameter of Fusarium growth ([1]; Batch 3, 75 ppm, day 4): 25.2 mm | growth, color and physical appearance ([1]; Batch 3, 75 ppm, day 4): peach | diameter of Fusarium growth ([1]; Batch 3, 75 ppm, day 7): 32.7 mm | growth, color and physical appearance ([1]; Batch 3, 75 ppm, day 7): pink, fuzzy | diameter of Fusarium growth ([1]; Batch 3, 75 ppm, day 11): 41.0 mm | growth, color and physical appearance ([1]; Batch 3, 75 ppm, day 11): pink, fuzzy | coverage of the plates by the fungus ([1]; Batch 3, 75 ppm, day 14): 38.1% covered, | diameter of Fusarium growth ([1]; Batch 3, 75 ppm, day 14): 43.7 mm | growth, color and physical appearance ([1]; Batch 3, 75 ppm, day 14): pink, fuzzy | diameter of Fusarium growth ([1]; Batch 3, 100 ppm, day 0 (inoculum plug)): 8.7 mm | diameter of Fusarium growth ([1]; Batch 3, 100 ppm, day 4): 21.7 mm | growth, color and physical appearance ([1]; Batch 3, 100 ppm, day 4): peach | diameter of Fusarium growth ([1]; Batch 3, 100 ppm, day 7): 25.0 mm | growth, color and physical appearance ([1]; Batch 3, 100 ppm, day 7): pink, fuzzy | diameter of Fusarium growth ([1]; Batch 3, 100 ppm, day 11): 26.0 mm | growth, color and physical appearance ([1]; Batch 3, 100 ppm, day 11): pink, fuzzy | coverage of the plates by the fungus ([1]; Batch 3, 100 ppm, day 14): 34.9% covered, | diameter of Fusarium growth ([1]; Batch 3, 100 ppm, day 14): 26.7 mm | growth, color and physical appearance ([1]; Batch 3, 100 ppm, day 14): pink, fuzzy | diameter of Fusarium growth ([1]; Batch 3, 250 ppm, day 0 (inoculum plug)): 7.3 mm | diameter of Fusarium growth ([1]; Batch 3, 250 ppm, day 4): 12.2 mm | growth, color and physical appearance ([1]; Batch 3, 250 ppm, day 4): yellow | diameter of Fusarium growth ([1]; Batch 3, 250 ppm, day 7): 20 mm | growth, color and physical appearance ([1]; Batch 3, 250 ppm, day 7): peach, fuzzy | diameter of Fusarium growth ([1]; Batch 3, 250 ppm, day 11): 29.7 mm | diameter of Fusarium growth ([1]; Batch 3, 250 ppm, day 14): 38.7 mm | growth, color and physical appearance ([1]; Batch 3, 250 ppm, day 14): peach with yellow | inhibition of Fusarium ([1]; concentrations lower than 250 ppm, not as effective): some inhibition | reduction of fungal growth ([2]; 1000 ppm): 35% | reduction of fungal growth ([2]; 2000 ppm): about 55%
